Assay results published in PubChem BioAssay AID687005 (Broad Institute, 2013).
Results filed as inconclusive are left out. Activity calls are given as the source filed them.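 How the source made its calls: active means Compounds that reduce signal, with fitted half-maximal dose at or under twice the top valid tested dose; inconclusive means Poor fit, or flat curve losing 30 to 70% of signal; inactive means Potency past limit, flat within 30%, or opposite direction.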

Assay: viability loss in HEK293T cells – cell-based, ATP luminescence, cherry-pick samples, cytotoxicity control, dose response (AID 687005)
Conditions: HEK293T viability, ATP luminescence (CellTiter-Glo), 48 h

C[C@@H]1CN([C@H](C)CO)C(=O)c2cc(NC(=O)Nc3cccc4ccccc34)ccc2O[C@@H](C)CCCCO[C@@H]1CN(C)Cc1ccc2c(c1)OCO2
activity change, negative = cytotoxicity (at 26 µM (top of the series)): -13.2% (inactive)

C[C@@H]1CN([C@H](C)CO)C(=O)c2cccc(NC(=O)C3CC3)c2O[C@H]1CN(C)Cc1ccc(C(=O)O)cc1
activity change, negative = cytotoxicity (at 26 µM (top of the series)): -12.7% (inactive)

CC(C)NC(=O)Nc1cccc2c1O[C@H](CN(C)C)[C@H](C)CN([C@@H](C)CO)C2=O
activity change, negative = cytotoxicity (at 26 µM (top of the series)): 22% (inactive)

C[C@@H]1CN([C@@H](C)CO)C(=O)CCCn2cc(nn2)CO[C@@H]1CN(C)C(=O)CCCN(C)C
activity change, negative = cytotoxicity (at 28.5 µM (top of the series)): 6.9% (inactive)

CC=Cc1ccc2n(c1=O)C[C@@H]1[C@@H](CO)[C@H](C(=O)N3CCCCC3)N(Cc3ccccc3)[C@H]21 (mixture of isomers)
activity change, negative = cytotoxicity (at 26 µM (top of the series)): 11.7% (inactive)

C[C@@H]1CN([C@H](C)CO)C(=O)c2cc(-c3ccc(C#N)cc3)cnc2O[C@@H]1CN(C)C(=O)Nc1ccc(F)cc1
activity change, negative = cytotoxicity (at 26 µM (top of the series)): -0.869% (inactive)

CNC[C@@H]1OCCCC[C@@H](C)Oc2ccc(NS(=O)(=O)c3ccc(Cl)cc3)cc2C(=O)N([C@H](C)CO)C[C@H]1C
activity change, negative = cytotoxicity (at 26 µM (top of the series)): -31.3% (inactive)

CCC(=O)N(C)C[C@H]1Oc2cc(C#CC(C)(C)O)ccc2S(=O)(=O)N([C@@H](C)CO)C[C@@H]1C
activity change, negative = cytotoxicity (at 26 µM (top of the series)): 8.91% (inactive)

C[C@@H]1CCCCO[C@@H](CN(C)CC2CCCCC2)[C@@H](C)CN([C@@H](C)CO)C(=O)c2cc(NS(=O)(=O)c3ccccc3)ccc2O1
activity change, negative = cytotoxicity (at 23.5 µM (top of the series)): -40.3% (inactive)

CCOC(=O)NC(=S)Nc1ccc(C(C)(C)C)cc1
activity change, negative = cytotoxicity (at 26 µM (top of the series)): -11.3% (inactive)

CNC(=O)C[C@@H]1CC[C@H]2[C@@H](COC[C@H](O)CN2C(=O)Nc2ccc3c(c2)OCO3)O1
activity change, negative = cytotoxicity (at 26 µM (top of the series)): -5.64% (inactive)

C[C@H]1CN([C@@H](C)CO)C(=O)Cc2cc(NS(=O)(=O)c3cn(C)cn3)ccc2O[C@@H]1CN(C)Cc1ccc(Oc2ccccc2)cc1
activity change, negative = cytotoxicity (at 26 µM (top of the series)): 28.9% (inactive)

C[C@H](CO)N1C[C@H](C)[C@@H](CN(C)S(=O)(=O)c2cn(C)cn2)Oc2c(NC(=O)Nc3ccccc3)cccc2C1=O
activity change, negative = cytotoxicity (at 26 µM (top of the series)): 1.19% (inactive)

C[C@@H]1CN([C@@H](C)CO)C(=O)c2cccc(NC(=O)Nc3ccccc3)c2O[C@H]1CN(C)S(=O)(=O)c1cn(C)cn1
activity change, negative = cytotoxicity (at 26 µM (top of the series)): 55.5% (inactive)

O=C(NCCc1ccccc1)[C@@H]1[C@@H](CO)[C@@H]2Cn3c(cccc3=O)[C@H]1N2C(=O)C1CCC1
activity change, negative = cytotoxicity (at 26 µM (top of the series)): 8.28% (inactive)

C[C@H](CO)N1C[C@H](C)[C@H](CN(C)Cc2ccccc2)OCCCC[C@H](C)Oc2ccc(NS(=O)(=O)c3cccs3)cc2C1=O
activity change, negative = cytotoxicity (at 26 µM (top of the series)): -20.5% (inactive)

O=C(Oc1ccc2c3c(c(=O)oc2c1)CCCC3)c1ccco1
activity change, negative = cytotoxicity (at 26 µM (top of the series)): -27.5% (inactive)

COc1cccc(NC(=S)NC(=O)Cc2ccc(Cl)cc2)c1
activity change, negative = cytotoxicity (at 26 µM (top of the series)): -6.68% (inactive)

COc1cccc(S(=O)(=O)Nc2ccc3c(c2)[C@H]2C[C@H](CC(=O)NCc4ccccc4F)O[C@@H](CO)[C@H]2O3)c1
activity change, negative = cytotoxicity (at 26 µM (top of the series)): 2.6% (inactive)

C[C@H](CO)N1C[C@H](C)[C@H](CN(C)C(=O)NC2CCCCC2)OCCCC[C@H](C)Oc2ccc(NS(=O)(=O)c3cn(C)cn3)cc2C1=O
activity change, negative = cytotoxicity (at 26 µM (top of the series)): 3.14% (inactive)

O=C(Cc1ccccc1)N[C@H]1C=C[C@@H](CC(=O)N2CCOCC2)O[C@H]1CO
activity change, negative = cytotoxicity (at 26 µM (top of the series)): 8.54% (inactive)

CO[C@H]1CN(C)C(=O)c2cc(NS(=O)(=O)c3ccc(C)cc3)ccc2OC[C@H](C)N(C)C[C@H]1C
activity change, negative = cytotoxicity (at 26 µM (top of the series)): 13.7% (inactive)

C[C@H](CO)N1C[C@H](C)[C@H](CN(C)C(=O)Nc2cccc(F)c2)Oc2ncc(C#CCN(C)C)cc2C1=O
activity change, negative = cytotoxicity (at 26 µM (top of the series)): -20.2% (inactive)

COc1ccccc1CNC(=O)C[C@@H]1CC[C@@H]2[C@H](COC[C@@H](O)CN2Cc2ccccc2)O1
activity change, negative = cytotoxicity (at 26 µM (top of the series)): -10.7% (inactive)

COc1ccc(N(CC(=O)NCCSCc2ccc(C)cc2)S(=O)(=O)c2ccccc2)cc1
activity change, negative = cytotoxicity (at 26 µM (top of the series)): -65.3% (inactive)

COc1ccc(NC(=S)NCc2ccc(Cl)cc2)c(OC)c1
activity change, negative = cytotoxicity (at 26 µM (top of the series)): 0.916% (inactive)

CCNC(=O)C[C@@H]1CC[C@H]2[C@@H](COC[C@@H](O)CN2S(=O)(=O)c2ccccc2F)O1
activity change, negative = cytotoxicity (at 26 µM (top of the series)): 51.2% (inactive)

CC(C)NC(=O)NCC[C@@H]1CC[C@@H](NC(=O)CN(C)C)[C@@H](CO)O1
activity change, negative = cytotoxicity (at 26 µM (top of the series)): 44.1% (inactive)

CC(=O)c1ccc(OCC(=O)NCc2ccc(F)cc2)cc1
activity change, negative = cytotoxicity (at 26 µM (top of the series)): 11% (inactive)

CCC(C)(NC=O)C(=O)Nc1c(C)cccc1C (stereo not drawn)
activity change, negative = cytotoxicity (at 26 µM (top of the series)): -37.8% (inactive)

COCC(=O)N1C[C@H](C)[C@@H](OC)CN(C)C(=O)c2ccc(NS(C)(=O)=O)cc2OC[C@@H]1C
activity change, negative = cytotoxicity (at 23.5 µM (top of the series)): 17.4% (inactive)

COC(=O)C1=C(C)N(Cc2ccc(F)cc2)C(=S)NC1c1cccc(OC)c1 (stereo not drawn)
activity change, negative = cytotoxicity (at 26 µM (top of the series)): 4.8% (inactive)

O=C1CCC(C(=O)Nc2ccc([N+](=O)[O-])cc2)N1 (stereo not drawn)
activity change, negative = cytotoxicity (at 26 µM (top of the series)): -9.02% (inactive)

CNC[C@@H]1Oc2c(NS(=O)(=O)c3cccs3)cccc2C(=O)N([C@@H](C)CO)C[C@H]1C
activity change, negative = cytotoxicity (at 26 µM (top of the series)): 28.1% (inactive)

C[C@H](CO)N1C[C@H](C)[C@@H](CN(C)Cc2ccc(-c3ccccc3)cc2)Oc2ccc(NC(=O)Nc3ccc(C(F)(F)F)cc3)cc2C1=O
activity change, negative = cytotoxicity (at 26 µM (top of the series)): -3.25% (inactive)

COc1ccc(CN(C)C[C@@H]2OCCCC[C@H](C)Oc3ccc(N(C)C)cc3C(=O)N([C@H](C)CO)C[C@@H]2C)cc1
activity change, negative = cytotoxicity (at 26 µM (top of the series)): 12.7% (inactive)

Cc1ccc(NC(=O)C2(C)CCN2C(=O)CC2CC2)cc1C (stereo not drawn)
activity change, negative = cytotoxicity (at 42 µM (top of the series)): 22.8% (inactive)

C[C@@H]1CCCCO[C@H](CN(C)C(=O)c2ccccc2)[C@@H](C)CN([C@@H](C)CO)C(=O)c2cc(NC(=O)c3ccccc3)ccc2O1
activity change, negative = cytotoxicity (at 26 µM (top of the series)): 5.72% (inactive)

Cc1cc(C(=O)NC(=S)Nc2ccccc2N2CCOCC2)ccc1[N+](=O)[O-]
activity change, negative = cytotoxicity (at 26 µM (top of the series)): -23.2% (inactive)

C[C@@H]1CN([C@H](C)CO)C(=O)c2cc(-c3cccc(F)c3)cnc2O[C@H]1CN(C)Cc1ccccc1
activity change, negative = cytotoxicity (at 26 µM (top of the series)): -7.8% (inactive)

CC(C)NC(=O)N(C)C[C@@H]1OCCCC[C@H](C)Oc2ccc(NC(=O)Cc3ccccc3)cc2C(=O)N([C@H](C)CO)C[C@H]1C
activity change, negative = cytotoxicity (at 26 µM (top of the series)): 47.6% (inactive)

O=C(CN1CCOCC1)N1CC[C@@H]2[C@@H](CO)Nc3ccc(-c4ccccc4F)cc3[C@@H]21
activity change, negative = cytotoxicity (at 26 µM (top of the series)): 29% (inactive)

COc1cccc(S(=O)(=O)N2C[C@@H](O)COC[C@H]3O[C@H](CC(=O)N4CCN(C)CC4)CC[C@@H]32)c1
activity change, negative = cytotoxicity (at 26 µM (top of the series)): -1.64% (inactive)

C[C@H]1CN([C@@H](C)CO)C(=O)c2cc(NC(=O)Nc3cccc4ccccc34)ccc2O[C@@H]1CN(C)C(=O)Nc1ccc(C(F)(F)F)cc1
activity change, negative = cytotoxicity (at 26 µM (top of the series)): 1.29% (inactive)

CCC(=O)N1[C@H](CO)[C@H](c2ccccc2)[C@@H]1CN(CC)C(=O)c1cccc(F)c1
activity change, negative = cytotoxicity (at 26 µM (top of the series)): 25% (inactive)

O=C(Nc1ccccc1)N[C@@H]1CC[C@@H](CCNC(=O)c2ccccc2F)O[C@H]1CO
activity change, negative = cytotoxicity (at 26 µM (top of the series)): -29.3% (inactive)

C[C@@H]1CN([C@H](C)CO)C(=O)Cc2cc(NC(=O)Nc3cccc4ccccc34)ccc2O[C@@H]1CN(C)Cc1ccc(C(=O)O)cc1
activity change, negative = cytotoxicity (at 23.5 µM (top of the series)): -26.3% (inactive)

C[C@H]1CN([C@@H](C)CO)C(=O)c2cccc(N(C)C)c2O[C@@H]1CN(C)C(=O)Nc1cccc2ccccc12
activity change, negative = cytotoxicity (at 26 µM (top of the series)): -6.36% (inactive)

COc1ccccc1NC(=O)N[C@@H]1CC[C@@H](CCn2cc(C3(O)CCCC3)nn2)O[C@H]1CO
activity change, negative = cytotoxicity (at 26 µM (top of the series)): 9.21% (inactive)

C[C@@H]1CN([C@H](C)CO)C(=O)c2cc(-c3ccc(F)cc3)cnc2O[C@H]1CN(C)CC1CCCCC1
activity change, negative = cytotoxicity (at 26 µM (top of the series)): 6.84% (inactive)

CC(=O)N[C@H]1CC[C@@H](CCNC(=O)C2CCC2)O[C@H]1CO
activity change, negative = cytotoxicity (at 26 µM (top of the series)): 1.44% (inactive)

C[C@H]1CN([C@@H](C)CO)C(=O)c2cc(-c3cncnc3)cnc2O[C@H]1CN(C)C(=O)c1ccccc1F
activity change, negative = cytotoxicity (at 26 µM (top of the series)): 4.74% (inactive)

COc1ccc(CN(C)C[C@@H]2Oc3ccc(NS(C)(=O)=O)cc3CC(=O)N([C@H](C)CO)C[C@H]2C)cc1
activity change, negative = cytotoxicity (at 23.5 µM (top of the series)): 1.11% (inactive)

C[C@@H]1CN([C@@H](C)CO)C(=O)CCCn2nncc2CO[C@@H]1CN(C)Cc1cccc(C(F)(F)F)c1
activity change, negative = cytotoxicity (at 26 µM (top of the series)): -9.87% (inactive)

C[C@@H]1CN([C@@H](C)CO)C(=O)c2cccc(NS(=O)(=O)c3ccc(F)cc3)c2O[C@H]1CN(C)S(=O)(=O)c1ccc(Cl)cc1
activity change, negative = cytotoxicity (at 26 µM (top of the series)): -22.8% (inactive)

O=C(NC[C@@H]1[C@@H](c2ccccc2)[C@H](CO)N1C(=O)C1CCC1)NC1CCCC1
activity change, negative = cytotoxicity (at 23.5 µM (top of the series)): -9.04% (inactive)

COc1ccc(-c2cnc3c(c2)C(=O)N([C@@H](C)CO)C[C@@H](C)[C@@H](CN(C)S(C)(=O)=O)O3)cc1
activity change, negative = cytotoxicity (at 26 µM (top of the series)): 6.27% (inactive)

C[C@H]1CN([C@@H](C)CO)C(=O)Cc2cc(NC(=O)CCCCCC(=O)Nc3ccccc3N)ccc2O[C@H]1CN(C)C(=O)Nc1ccccc1
activity change, negative = cytotoxicity (at 26 µM (top of the series)): -5.33% (inactive)

O=C(C[C@@H]1CC[C@H]2[C@@H](COC[C@H](O)CN2Cc2cccc(C(F)(F)F)c2)O1)NCc1ccccc1
activity change, negative = cytotoxicity (at 26 µM (top of the series)): -14.1% (inactive)

CO[C@H]1CN(C)C(=O)c2ccc(NC(=O)C3CC3)cc2OC[C@@H](C)N(Cc2ccc(F)cc2)C[C@@H]1C
activity change, negative = cytotoxicity (at 26 µM (top of the series)): 37.9% (inactive)

CCC(=O)N1[C@H](CO)[C@H](c2ccccc2)[C@H]1CN(CC)C(=O)c1cccc(F)c1
activity change, negative = cytotoxicity (at 26 µM (top of the series)): -0.378% (inactive)

O=C(C[C@H]1CC[C@H](NC(=O)Nc2ccc(C(F)(F)F)cc2)[C@H](CO)O1)NCc1cccc(F)c1
activity change, negative = cytotoxicity (at 26 µM (top of the series)): 11.3% (inactive)

C[C@H](CO)N1C[C@H](C)[C@@H](CN(C)Cc2ccncc2)Oc2ccc(NC(=O)CCC(F)(F)F)cc2C1=O
activity change, negative = cytotoxicity (at 26 µM (top of the series)): -2.07% (inactive)
